Data reported in ChEMBL document CHEMBL1145721, “The secalosides, novel tumor cell growth inhibitory glycosides from a pollen extract” (J Nat Prod, 1997).
Active and inactive are the calls of the source. The calls are words filed in the database; no cut-off is given here.

What was measured:
[1] = tested on: CCRF S-180; assay: In vivo antitumor activity against mouse S180 cells implanted in mouse assessed as cell growth at 0.625 ug/mouse for 10 days relative to control; assay type: functional
[2] = tested on: CCRF S-180; assay: In vivo antitumor activity against mouse S180 cells implanted in mouse assessed as cell growth at 2.5 ug/mouse for 10 days relative to control; assay type: functional
[3] = tested on: CCRF S-180; assay: In vivo antitumor activity against mouse S180 cells implanted in mouse assessed as cell growth at 1.25 ug/mouse for 10 days relative to control; assay type: functional
[4] = tested on: CCRF S-180; assay: In vivo antitumor activity against mouse S180 cells implanted in mouse assessed as cell growth at 5 ug/mouse for 10 days relative to control; assay type: functional
[5] = tested on: CCRF S-180; assay: In vivo antitumor activity against mouse S180 cells implanted in mouse assessed as cell growth at 20 ug/mouse for 10 days relative to control; assay type: functional
[6] = tested on: CCRF S-180; assay: In vivo antitumor activity against mouse S180 cells implanted in mouse assessed as cell growth at 10 ug/mouse for 10 days relative to control; assay type: functional
[7] = tested on: CCRF S-180; assay: In vivo antitumor activity against mouse S180 cells implanted in mouse after 10 days; assay type: functional, organism-based
[8] = tested on: CCRF S-180; assay: In vivo antitumor activity against mouse S180 cells implanted in mouse assessed as cell growth at 60 ug/mouse for 10 days relative to control; assay type: functional
[9] = tested on: CCRF S-180; assay: Antitumor activity against mouse S180 cells implanted in mouse in presence of cyclophosphamide administered 24 hrs prior to implantation; assay type: functional, cell-based
[10] = tested on: KB; assay: Cytotoxicity against human KB cells; assay type: functional, cell-based
[11] = tested on: L1210; assay: Cytotoxicity against mouse L1210 cells; assay type: functional, cell-based
[12] = tested on: CCRF S-180; assay: In vivo antitumor activity against mouse S180 cells implanted in mouse assessed as cell growth at 40 ug/mouse for 10 days relative to control; assay type: functional
[13] = tested on: CCRF S-180; assay: Cytotoxicity against mouse S180 cells; assay type: functional, cell-based

| Structure (SMILES) | T/C [1] | T/C [2] | T/C [3] | T/C [4] | T/C [5] | T/C [6] | IC50 [7] | T/C [8] | Activity [9] | Activity [10] | Activity [11] | T/C [12] | Activity [13] |
| --- | --- | --- | --- | --- | --- | --- | --- | --- | --- | --- | --- | --- | --- |
| O=C(O)CC1C(=O)Nc2ccccc21 (stereo not given) | 36% | 0% | 16% | 0% | 0% | 0% | <= 1 ug |  |  |  |  |  |  |
| O=C1CC(C(=O)O)c2ccccc2N1 (racemic) | 62% | 0% | 30% | 0% | 0% | 0% | <= 1 ug |  |  |  |  |  |  |
| COc1cc(C2c3cc(O[C@@H]4O[C@H](COC(=O)CC5C(=O)Nc6ccccc65)[C@@H](O)[C@H](O)[C@H]4O)c(O)cc3C3C(=O)O[C@H]4[C@H](O)[C@@H](COC(=O)C32)O[C@@]4(CO)O[C@H]2O[C@H](CO)[C@@H](O)[C@H](O)[C@H]2O)ccc1O (stereo not given in full) [SECALOSDIE A/B] |  | 70% |  | 45% | 17% | 24% | 5 µg | 0% | inactive | inactive | inactive | 2% | inactive |
